Laboratory results: ChEMBL document CHEMBL4699479, “Structure-aided optimization of 3-O-β-chacotriosyl epiursolic acid derivatives as novel H5N1 virus entry inhibitors” (Bioorg Med Chem Lett, 2020)
pIC50, pKd: −log10 of the molar value. Activity calls are given as the source filed them. The calls are words filed in the database; no cut-off is given here.

Assays:
Influenza A virus [1] = type: functional, organism-based; settings: A/Duck/Guangdong/212/2004(H5N1), A549
[2] = Cytotoxicity against human A549 cells assessed as reduction in cell viability by MTT assay; type: cell-based
in vitro = settings: human, A549 cells
MDCK [3] = assay: (§1) Cytotoxicity against dog MDCK cells assessed as reduction in cell viability; type: cell-based, Canis lupus familiaris; settings: mdck
Erythrocyte = assay: Inhibition of Hemagglutinin in Influenza A virus (H5N1) assessed as reduction in virus-induced agglutination of chicken erythrocytes by hemagglutination assay; type: cell-based; settings: dose microM 5-160
H5N1 subtype = assay: Antiviral activity against Influenza A virus (A/Thailand/Kan353/2004(H5N1)) infected in MDCK cells assessed as inhibition of viral entry; type: functional, organism-based
[4] = system: Vesicular stomatitis virus; assay: Antiviral activity against VSV-G enveloped pseudovirus infected in MDCK cells assessed as inhibition of viral entry at 1 to 100 uM; type: functional, organism-based; settings: dose microM 1-100
[5] = system: Influenza A virus (A/Thailand/Kan353/2004(H5N1)); assay: Inhibition of Influenza A virus (A/Thailand/Kan353/2004(H5N1)) neuraminidase N1 at 5 to 20 microM by fluorescence method; settings: dose microM 5-20
[6] = (§2) Binding affinity to Influenza A virus (A/Viet Nam/1203/2004(H5N1)) hemagglutin by surface plasmon resonance assay
[7] = system: Influenza A virus (A/Viet Nam/1203/2004(H5N1)); assay: as §2
Influenza A virus [8] = type: functional, organism-based; settings: A/Duck/Guangdong/212/2004(H5N1), dose mg/kg 40-160, time 5.0 day
MDCK [9] = assay: Cytotoxicity against dog MDCK cells assessed as reduction in cell viability at 0.78125 to 200 uM; type: cell-based, Canis lupus familiaris; settings: dose 0.78125-200 µM
Influenza A virus [10] = type: functional, organism-based; settings: A/Duck/Guangdong/212/2004(H5N1), A549, dose 25.0 µM
[11] = as §1; type: cell-based, Canis lupus familiaris; settings: MDCK cells
Influenza A virus [12] = type: functional, organism-based; settings: A/Duck/Guangdong/212/2004(H5N1), dose 80.0 mg/kg, time 5.0 day

Structure (SMILES): CCCCCOC(=O)[C@]12CC[C@@H](C)[C@H](C)[C@H]1C1=CC[C@@H]3[C@@]4(C)CC[C@@H](O[C@@H]5O[C@H](CO)[C@@H](O[C@@H]6O[C@@H](C)[C@H](O)[C@@H](O)[C@H]6O)[C@H](O)[C@H]5O[C@@H]5O[C@@H](C)[C@H](O)[C@@H](O)[C@H]5O)C(C)(C)[C@@H]4CC[C@@]3(C)[C@]1(C)CC2
- pIC50 (Influenza A virus [1]): 4.53
- CC50 [2]: 489 µM
- selectivity ratio (in vitro): 16.7

Structure (SMILES): C[C@H]1[C@H](C)CC[C@]2(C(=O)O)CC[C@]3(C)C(=CC[C@@H]4[C@@]5(C)CC[C@@H](O[C@@H]6O[C@H](CO)[C@@H](O[C@@H]7O[C@@H](C)[C@H](O)[C@@H](O)[C@H]7O)[C@H](O)[C@H]6O[C@@H]6O[C@@H](C)[C@H](O)[C@@H](O)[C@H]6O)C(C)(C)[C@@H]5CC[C@]43C)[C@H]12
- pIC50 (Influenza A virus [1]): 4.31
- CC50 [2]: 283 µM
- selectivity ratio (in vitro): 5.8

Structure (SMILES): COC(=O)[C@]12CC[C@@H](C)[C@H](C)[C@H]1C1=CC[C@@H]3[C@@]4(C)CC[C@@H](O[C@@H]5O[C@H](CO)[C@@H](O[C@@H]6O[C@@H](C)[C@H](O)[C@@H](O)[C@H]6O)[C@H](O)[C@H]5O[C@@H]5O[C@@H](C)[C@H](O)[C@@H](O)[C@H]5O)C(C)(C)[C@@H]4CC[C@@]3(C)[C@]1(C)CC2
- pIC50 (Influenza A virus [1]): 4.78
- CC50 [2]: 363 µM
- Activity (MDCK [3]): Non-Toxic
- selectivity ratio (in vitro): 22.1

Structure (SMILES): C[C@H]1[C@H](C)CC[C@]2(C(=O)N(C)C)CC[C@]3(C)C(=CC[C@@H]4[C@@]5(C)CC[C@@H](O[C@@H]6O[C@H](CO)[C@@H](O[C@@H]7O[C@@H](C)[C@H](O)[C@@H](O)[C@H]7O)[C@H](O)[C@H]6O[C@@H]6O[C@@H](C)[C@H](O)[C@@H](O)[C@H]6O)C(C)(C)[C@@H]5CC[C@]43C)[C@H]12
- inhibition (Erythrocyte): Dose-dependent effect
- pIC50 (Influenza A virus [1]): 5.07
- CC50 [2]: > 1000 µM
- pIC50 (H5N1 subtype): 5.20
- Activity [4]: inactive
- inhibition [5]: inactive
- pKd [6]: 8.79
- Activity [7]: Dose-dependent effect
- Activity (Influenza A virus [8]): Dose-dependent effect
- Activity (MDCK [9]): Non-Toxic
- Activity (Influenza A virus [10]): Active
- selectivity ratio (in vitro): > 119

Structure (SMILES): C[C@H]1[C@H](C)CC[C@]2(C(=O)NC3CCCC3)CC[C@]3(C)C(=CC[C@@H]4[C@@]5(C)CC[C@@H](O[C@@H]6O[C@H](CO)[C@@H](O[C@@H]7O[C@@H](C)[C@H](O)[C@@H](O)[C@H]7O)[C@H](O)[C@H]6O[C@@H]6O[C@@H](C)[C@H](O)[C@@H](O)[C@H]6O)C(C)(C)[C@@H]5CC[C@]43C)[C@H]12
- pIC50 (Influenza A virus [1]): 4.73
- CC50 [2]: > 1000 µM
- selectivity ratio (in vitro): > 54.1

Structure (SMILES): CNC(=O)[C@]12CC[C@@H](C)[C@H](C)[C@H]1C1=CC[C@@H]3[C@@]4(C)CC[C@@H](O[C@@H]5O[C@H](CO)[C@@H](O[C@@H]6O[C@@H](C)[C@H](O)[C@@H](O)[C@H]6O)[C@H](O)[C@H]5O[C@@H]5O[C@@H](C)[C@H](O)[C@@H](O)[C@H]5O)C(C)(C)[C@@H]4CC[C@@]3(C)[C@]1(C)CC2
- pIC50 (Influenza A virus [1]): 4.91
- CC50 [2]: > 1000 µM
- selectivity ratio (in vitro): > 81.7

Structure (SMILES): CCOC(=O)[C@]12CC[C@@H](C)[C@H](C)[C@H]1C1=CC[C@@H]3[C@@]4(C)CC[C@@H](O[C@@H]5O[C@H](CO)[C@@H](O[C@@H]6O[C@@H](C)[C@H](O)[C@@H](O)[C@H]6O)[C@H](O)[C@H]5O[C@@H]5O[C@@H](C)[C@H](O)[C@@H](O)[C@H]5O)C(C)(C)[C@@H]4CC[C@@]3(C)[C@]1(C)CC2
- pIC50 (Influenza A virus [1]): 4.74
- CC50 [2]: 375 µM
- selectivity ratio (in vitro): 20.7

Structure (SMILES): C[C@H]1[C@H](C)CC[C@]2(C(=O)OC3CCCC3)CC[C@]3(C)C(=CC[C@@H]4[C@@]5(C)CC[C@@H](O[C@@H]6O[C@H](CO)[C@@H](O[C@@H]7O[C@@H](C)[C@H](O)[C@@H](O)[C@H]7O)[C@H](O)[C@H]6O[C@@H]6O[C@@H](C)[C@H](O)[C@@H](O)[C@H]6O)C(C)(C)[C@@H]5CC[C@]43C)[C@H]12
- pIC50 (Influenza A virus [1]): 4.39
- CC50 [2]: 524 µM
- selectivity ratio (in vitro): 12.9

Structure (SMILES): C[C@H]1[C@H](C)CC[C@]2(C(=O)N(C)C)CC[C@]3(C)C(=CC[C@@H]4[C@@]5(C)CC[C@H](O[C@@H]6O[C@H](CO)[C@@H](O[C@@H]7O[C@@H](C)[C@H](O)[C@@H](O)[C@H]7O)[C@H](O)[C@H]6O[C@@H]6O[C@@H](C)[C@H](O)[C@@H](O)[C@H]6O)C(C)(C)[C@@H]5CC[C@]43C)[C@H]12
- CC50 [11]: 47 µM

Structure (SMILES): C[C@H]1[C@H](C)CC[C@]2(C(=O)Nc3ccccc3)CC[C@]3(C)C(=CC[C@@H]4[C@@]5(C)CC[C@@H](O[C@@H]6O[C@H](CO)[C@@H](O[C@@H]7O[C@@H](C)[C@H](O)[C@@H](O)[C@H]7O)[C@H](O)[C@H]6O[C@@H]6O[C@@H](C)[C@H](O)[C@@H](O)[C@H]6O)C(C)(C)[C@@H]5CC[C@]43C)[C@H]12
- pIC50 (Influenza A virus [1]): 4.47
- CC50 [2]: > 1000 µM
- selectivity ratio (in vitro): > 29.6

Structure (SMILES): C[C@H]1[C@H](C)CC[C@]2(C(=O)OCc3ccccc3)CC[C@]3(C)C(=CC[C@@H]4[C@@]5(C)CC[C@@H](O[C@@H]6O[C@H](CO)[C@@H](O[C@@H]7O[C@@H](C)[C@H](O)[C@@H](O)[C@H]7O)[C@H](O)[C@H]6O[C@@H]6O[C@@H](C)[C@H](O)[C@@H](O)[C@H]6O)C(C)(C)[C@@H]5CC[C@]43C)[C@H]12
- pIC50 (Influenza A virus [1]): < 4.30

Structure (SMILES): NC(=O)c1ncn([C@@H]2O[C@H](CO)[C@@H](O)[C@H]2O)n1 [RIBAVIRIN]
- pIC50 (Influenza A virus [1]): 4.33
- CC50 [2]: 130 µM
- Activity (Influenza A virus [12]): Active
- selectivity ratio (in vitro): 2.7

Structure (SMILES): C[C@H]1[C@H](C)CC[C@]2(C(=O)NCc3ccccc3)CC[C@]3(C)C(=CC[C@@H]4[C@@]5(C)CC[C@@H](O[C@@H]6O[C@H](CO)[C@@H](O[C@@H]7O[C@@H](C)[C@H](O)[C@@H](O)[C@H]7O)[C@H](O)[C@H]6O[C@@H]6O[C@@H](C)[C@H](O)[C@@H](O)[C@H]6O)C(C)(C)[C@@H]5CC[C@]43C)[C@H]12
- pIC50 (Influenza A virus [1]): < 4.30
